Legend:
UO-31 = assay: NCI-60 SRB screen; format: cell-based, human; settings: Homo sapiens; single dose 10^−5 M; UO-31, Renal cancer; read-out: Growth inhibition (%)
COLO 205 = assay: NCI-60 SRB screen; format: cell-based, human; settings: Homo sapiens; single dose 10^−5 M; COLO 205, Colon cancer; read-out: Growth inhibition (%)
HT-29 = assay: NCI-60 SRB screen; format: cell-based; settings: Homo sapiens; single dose 10^−5 M; HT-29, Colon cancer; read-out: Growth inhibition (%)
HCT-116 = assay: NCI-60 SRB screen; format: cell-based, human; settings: Homo sapiens; single dose 10^−5 M; HCT-116, Colon cancer; read-out: Growth inhibition (%)
HOP-62 = assay: NCI-60 SRB screen; format: cell-based, human; settings: Homo sapiens; single dose 10^−5 M; HOP-62, Non-small cell lung carcinoma; read-out: Growth inhibition (%)
CCRF-CEM = assay: NCI-60 SRB screen; format: cell-based; settings: Homo sapiens, single dose 10^−5 M, Leukaemia, read-out: Growth inhibition (%)
SK-MEL-2 = assay: NCI-60 SRB screen; format: cell-based, human; settings: Homo sapiens; single dose 10^−5 M; SK-MEL-2, Melanoma; read-out: Growth inhibition (%)
HL-60(TB) = assay: NCI-60 SRB screen; format: cell-based, human; settings: Homo sapiens; single dose 10^−5 M; HL-60(TB), Leukaemia; read-out: Growth inhibition (%)
RXF 393 = assay: NCI-60 SRB screen; format: cell-based, human; settings: Homo sapiens; single dose 10^−5 M; RXF 393, Renal cancer; read-out: Growth inhibition (%)
K-562 = assay: NCI-60 SRB screen; format: cell-based, human; settings: Homo sapiens, K562; single dose 10^−5 M; K-562, Leukaemia; read-out: Growth inhibition (%)
HCT-15 = assay: NCI-60 SRB screen; format: cell-based, human; settings: Homo sapiens; single dose 10^−5 M; HCT-15, Colon cancer; read-out: Growth inhibition (%)
[1] = tested on: panel of 60 cancer cell lines; assay: NCI-60 SRB screen, mean or range over the panel; format: cell-based, human; settings: Homo sapiens; mean over the cell lines; single dose 10^−5 M; read-out: Mean growth inhibition (%)
SW-620 = assay: NCI-60 SRB screen; format: cell-based; settings: Homo sapiens; single dose 10^−5 M; SW-620, Colon cancer; read-out: Growth inhibition (%)
HCC-2998 = assay: NCI-60 SRB screen; format: cell-based, human; settings: Homo sapiens; single dose 10^−5 M; HCC-2998, Colon cancer; read-out: Growth inhibition (%)
EKVX = assay: NCI-60 SRB screen; format: cell-based, human; settings: Homo sapiens, single dose 10^−5 M, Non-small cell lung carcinoma, read-out: Growth inhibition (%)
HOP-92 = assay: NCI-60 SRB screen; format: cell-based, human; settings: Homo sapiens; single dose 10^−5 M; HOP-92, Non-small cell lung carcinoma; read-out: Growth inhibition (%)
LOX IMVI = assay: NCI-60 SRB screen; format: cell-based, human; settings: Homo sapiens, single dose 10^−5 M, Melanoma, read-out: Growth inhibition (%)
UACC-257 = assay: NCI-60 SRB screen; format: cell-based, human; settings: Homo sapiens; single dose 10^−5 M; UACC-257, Melanoma; read-out: Growth inhibition (%)
MALME-3M = assay: NCI-60 SRB screen; format: cell-based, human; settings: Homo sapiens, single dose 10^−5 M, Melanoma, read-out: Growth inhibition (%)
UACC-62 = assay: NCI-60 SRB screen; format: cell-based, human; settings: Homo sapiens; single dose 10^−5 M; UACC-62, Melanoma; read-out: Growth inhibition (%)
IGROV1 = assay: NCI-60 SRB screen; format: cell-based, human; settings: Homo sapiens, IGROV-1; single dose 10^−5 M; IGROV1, Ovarian cancer; read-out: Growth inhibition (%)
KM12 = assay: NCI-60 SRB screen; format: cell-based, human; settings: Homo sapiens; single dose 10^−5 M; KM12, Colon cancer; read-out: Growth inhibition (%)
CAKI-1 = assay: NCI-60 SRB screen; format: cell-based, human; settings: Homo sapiens; single dose 10^−5 M; CAKI-1, Renal cancer; read-out: Growth inhibition (%)
OVCAR-3 = assay: NCI-60 SRB screen; format: cell-based, human; settings: Homo sapiens; single dose 10^−5 M; OVCAR-3, Ovarian cancer; read-out: Growth inhibition (%)
MOLT-4 = assay: NCI-60 SRB screen; format: cell-based; settings: Homo sapiens; single dose 10^−5 M; MOLT-4, Leukaemia; read-out: Growth inhibition (%)
NCI-H226 = assay: NCI-60 SRB screen; format: cell-based, human; settings: Homo sapiens; single dose 10^−5 M; NCI-H226, Non-small cell lung carcinoma; read-out: Growth inhibition (%)
SK-MEL-5 = assay: NCI-60 SRB screen; format: cell-based, human; settings: Homo sapiens; single dose 10^−5 M; SK-MEL-5, Melanoma; read-out: Growth inhibition (%)
OVCAR-8 = assay: NCI-60 SRB screen; format: cell-based, human; settings: Homo sapiens; single dose 10^−5 M; OVCAR-8, Ovarian cancer; read-out: Growth inhibition (%)
A549/ATCC = assay: NCI-60 SRB screen; format: cell-based, human; settings: Homo sapiens, single dose 10^−5 M, Non-small cell lung carcinoma, read-out: Growth inhibition (%)
M14 = assay: NCI-60 SRB screen; format: cell-based, human; settings: Homo sapiens; single dose 10^−5 M; M14, Melanoma; read-out: Growth inhibition (%)
NCI-H460 = assay: NCI-60 SRB screen; format: cell-based, human; settings: Homo sapiens; single dose 10^−5 M; NCI-H460, Non-small cell lung carcinoma; read-out: Growth inhibition (%)
SF-295 = assay: NCI-60 SRB screen; format: cell-based, human; settings: Homo sapiens; single dose 10^−5 M; SF-295, CNS cancer; read-out: Growth inhibition (%)
786-0 = assay: NCI-60 SRB screen; format: cell-based; settings: Homo sapiens; single dose 10^−5 M; 786-0, Renal cancer; read-out: Growth inhibition (%)
NCI/ADR-RES = assay: NCI-60 SRB screen; format: cell-based, human; settings: Homo sapiens, single dose 10^−5 M, Ovarian cancer, read-out: Growth inhibition (%)
OVCAR-4 = assay: NCI-60 SRB screen; format: cell-based, human; settings: Homo sapiens; single dose 10^−5 M; OVCAR-4, Ovarian cancer; read-out: Growth inhibition (%)
ACHN = assay: NCI-60 SRB screen; format: cell-based; settings: Homo sapiens, single dose 10^−5 M, Renal cancer, read-out: Growth inhibition (%)
NCI-H322M = assay: NCI-60 SRB screen; format: cell-based, human; settings: Homo sapiens, single dose 10^−5 M, Non-small cell lung carcinoma, read-out: Growth inhibition (%)
SF-268 = assay: NCI-60 SRB screen; format: cell-based, human; settings: Homo sapiens; single dose 10^−5 M; SF-268, CNS cancer; read-out: Growth inhibition (%)
TK-10 = assay: NCI-60 SRB screen; format: cell-based, human; settings: Homo sapiens; single dose 10^−5 M; TK-10, Renal cancer; read-out: Growth inhibition (%)
SK-OV-3 = assay: NCI-60 SRB screen; format: cell-based, human; settings: Homo sapiens; single dose 10^−5 M; SK-OV-3, Ovarian cancer; read-out: Growth inhibition (%)
NCI-H23 = assay: NCI-60 SRB screen; format: cell-based, human; settings: Homo sapiens; single dose 10^−5 M; NCI-H23, Non-small cell lung carcinoma; read-out: Growth inhibition (%)
NCI-H522 = assay: NCI-60 SRB screen; format: cell-based, human; settings: Homo sapiens; single dose 10^−5 M; NCI-H522, Non-small cell lung carcinoma; read-out: Growth inhibition (%)
SK-MEL-28 = assay: NCI-60 SRB screen; format: cell-based; settings: Homo sapiens; single dose 10^−5 M; SK-MEL-28, Melanoma; read-out: Growth inhibition (%)
SN12C = assay: NCI-60 SRB screen; format: cell-based, human; settings: Homo sapiens, SN12C; single dose 10^−5 M; SN 12 C, Renal cancer; read-out: Growth inhibition (%)

O=[N+]([O-])c1cccc(C2NC(N3CCOCC3)=C(Cl)c3c2sc2c(F)cccc32)c1 (centres unmarked) [Compound 8b, 4-Chloro-3-(4-morpholino)-8-fluoro-1-(3-nitrophenyl)-1,2-dihydro [1]benzothieno[2,3-c]pyridine]
inhibition at 10 µM (UO-31): 38.6%
inhibition at 10 µM (COLO 205): -12.9%
inhibition at 10 µM (HT-29): 0.78%
inhibition at 10 µM (HCT-116): 25.3%
inhibition at 10 µM (HOP-62): 16.1%
inhibition at 10 µM (CCRF-CEM): 5%
inhibition at 10 µM (SK-MEL-2): 8.89%
inhibition at 10 µM (HL-60(TB)): -10.1%
inhibition at 10 µM (RXF 393): 11.9%
inhibition at 10 µM (K-562): 18.6%
inhibition at 10 µM (HCT-15): 4.11%
inhibition at 10 µM [1]: 6.1%
inhibition at 10 µM (SW-620): 7.44%
inhibition at 10 µM (HCC-2998): -13.5%
inhibition at 10 µM (EKVX): 14.3%
inhibition at 10 µM (HOP-92): 22.2%
inhibition at 10 µM (LOX IMVI): 8.33%
inhibition at 10 µM (UACC-257): -3.74%
inhibition at 10 µM (MALME-3M): -3.09%
inhibition at 10 µM (UACC-62): 17.5%
inhibition at 10 µM (IGROV1): 16.2%
inhibition at 10 µM (KM12): 6.99%
inhibition at 10 µM (CAKI-1): 32.5%
inhibition at 10 µM (OVCAR-3): 2.72%
inhibition at 10 µM (MOLT-4): 13.6%
inhibition at 10 µM (NCI-H226): 20.9%
inhibition at 10 µM (SK-MEL-5): -8.74%
inhibition at 10 µM (OVCAR-8): 1.71%
inhibition at 10 µM (A549/ATCC): -0.74%
inhibition at 10 µM (M14): 7.49%
inhibition at 10 µM (NCI-H460): 6.4%
inhibition at 10 µM (SF-295): 4.37%
inhibition at 10 µM (786-0): -6.62%
inhibition at 10 µM (NCI/ADR-RES): 1.45%
inhibition at 10 µM (OVCAR-4): 13.5%
inhibition at 10 µM (ACHN): 9.98%
inhibition at 10 µM (NCI-H322M): 0.04%
inhibition at 10 µM (SF-268): 7.66%
inhibition at 10 µM (TK-10): -39.7%
inhibition at 10 µM (SK-OV-3): -1.6%
inhibition at 10 µM (NCI-H23): 5.35%
inhibition at 10 µM (NCI-H522): 17.3%
inhibition at 10 µM (SK-MEL-28): -7.54%
inhibition at 10 µM (SN12C): 3.71%

From PMC8330742, “New benzothieno[2,3-c]pyridines as non-steroidal CYP17 inhibitors: design, synthesis, anticancer screening, apoptosis induction, and in silico ADME profile studies” (Journal of Enzyme Inhibition and Medicinal Chemistry, 2021)
